Results taken from paper PMC12126180 (Journal of chemical information and modeling, 2021).

How the values were obtained:
SARS-CoV-2 WA1 strain = assay type: cell-based; settings: Vero E6 cells
COVID-19 = settings: 1063 patients, cited from earlier work

SMILES	activity against SARS-CoV-2 replication in words (SARS-CoV-2 WA1 strain)	mortality rate (COVID-19; placebo 11.9%) [%]	recovery time shortened with respect to the placebo (COVID-19)
CC(C)(O)c1ccccc1CC[C@@H](SCC1(CC(=O)O)CC1)c1cccc(/C=C/c2ccc3ccc(Cl)cc3n2)c1 [Montelukast]	weakly active	–	–
CCC(CC)COC(=O)[C@H](C)N[P@](=O)(OC[C@H]1O[C@@](C#N)(c2ccc3c(N)ncnn23)[C@H](O)[C@@H]1O)Oc1ccccc1 [Remdesivir]	–	7.1	four
